According to US20170271704A1, “MITIGATION OF CROSSOVER WITHIN FLOW BATTERIES” (LOCKHEED MARTIN ADVANCED ENERGY STORAGE,LLC, priority 2016, published 2017):

Experiments:
[1] = in water; active material for positive half-cell of a flow battery; cited from earlier work
[2] = Aqueous solubility (Table 1 comparison of positive half-cell active materials); conditions: effective concentration of transferrable electrons (solubility x electrons transferred)

## Fe(CN)6^3−^/4−
[1]
  Aqueous Solubility: 1.3 to 1.6 M
[2]
  Electron Aqueous Solubility: 1.3 to 1.6 M
